Measured values from ChEMBL document CHEMBL1147331, “Cytotoxic and antimalarial bisbenzylisoquinoline alkaloids from Stephania erecta” (J Nat Prod, 1993).
Converted amounts (≈) assume the structure as drawn.

Key:
[1] = Cytotoxicity against human Col1 cells after 3 days by sulforhodamine B assay; type: cell-based; conditions: read-out: ED50
[2] = Cytotoxicity against human HT1080 cells after 3 days by sulforhodamine B assay; type: cell-based, HT-1080; conditions: read-out: ED50
[3] = Selectivity index, ratio of ED50 for human COL1 cells to ED50 for chloroquine-sensitive Plasmodium falciparum D6; type: toxicity, cell-based; conditions: read-out: Ratio ED50
[4] = Cytotoxicity against human LNCAP cells after 3 days by sulforhodamine B assay; type: cell-based; conditions: read-out: ED50
[5] = Cytotoxicity against human KBV1 cells after 3 days by sulforhodamine B assay; type: cell-based, KB-V1; conditions: read-out: ED50
[6] = Selectivity index, ratio of ED50 for human HT1080 cells to ED50 for chloroquine-resistant Plasmodium falciparum W2; type: toxicity, cell-based, HT-1080; conditions: read-out: Ratio ED50
[7] = Cytotoxicity against mouse P388 cells after 2 days by sulforhodamine B assay; type: cell-based; conditions: read-out: ED50
in vitro [8] = conditions: mouse, P388 cells
Description: Selectivity index, ratio of ED50 for mice (Mus musculus) P388 cells to ED50 for chloroquine-resistant Plasmodium falciparum W2

[9] = Selectivity index, ratio of ED50 for human COL1 cells to ED50 for chloroquine-resistant Plasmodium falciparum W2; type: toxicity, cell-based; conditions: read-out: Ratio ED50
[10] = Selectivity index, ratio of ED50 for human KB cells to ED50 for chloroquine-sensitive Plasmodium falciparum D6; type: toxicity, cell-based; conditions: read-out: Ratio ED50
[11] = Cytotoxicity against human ZR-75-1 cells after 3 days by sulforhodamine B assay; type: cell-based; conditions: read-out: ED50
[12] = Selectivity index, ratio of ED50 for human HT1080 cells to ED50 for chloroquine-sensitive Plasmodium falciparum D6; type: toxicity, cell-based, HT-1080; conditions: read-out: Ratio ED50
[13] = Selectivity index, ratio of ED50 for human KB-V1 cells to ED50 for chloroquine-resistant Plasmodium falciparum W2; type: toxicity, cell-based; conditions: read-out: Ratio ED50
[14] = Cytotoxicity against human SK-MEL-2 cells after 3 days by sulforhodamine B assay; type: cell-based; conditions: read-out: ED50
[15] = Selectivity index, ratio of ED50 for human ZR-75-1 cells to ED50 for chloroquine-sensitive Plasmodium falciparum D6; type: toxicity, cell-based; conditions: read-out: Ratio ED50
[16] = Selectivity index, ratio of ED50 for human MEL2 cells to ED50 for chloroquine-resistant Plasmodium falciparum W2; type: toxicity, cell-based; conditions: read-out: Ratio ED50
[17] = Selectivity index, ratio of ED50 for human BCA1 cells to ED50 for chloroquine-sensitive Plasmodium falciparum D6; type: toxicity, cell-based; conditions: read-out: Ratio ED50
[18] = Cytotoxicity against human BCA1 cells after 3 days by sulforhodamine B assay; type: cell-based; conditions: read-out: ED50
in vitro [19] = conditions: mouse, P388 cells; remark: listed apart in the source
Description: Selectivity index, ratio of ED50 for mice (Mus musculus) P388 cells to ED50 for chloroquine-sensitive Plasmodium falciparum D6

[20] = Selectivity index, ratio of ED50 for human BCA1 cells to ED50 for chloroquine-resistant Plasmodium falciparum W2; type: toxicity, cell-based; conditions: read-out: Ratio ED50
[21] = Selectivity index, ratio of ED50 for human LUC1 cells to ED50 for chloroquine-resistant Plasmodium falciparum W2; type: toxicity, cell-based; conditions: read-out: Ratio ED50
[22] = Selectivity index, ratio of ED50 for human LNCaP cells to ED50 for chloroquine-resistant Plasmodium falciparum W2; type: toxicity, cell-based; conditions: read-out: Ratio ED50
[23] = Cytotoxicity against human A431 cells after 3 days by sulforhodamine B assay; type: cell-based, A-431; conditions: read-out: ED50
[24] = Cytotoxicity against human LUC1 cells after 3 days by sulforhodamine B assay; type: cell-based; conditions: read-out: ED50
[25] = Selectivity index, ratio of ED50 for human ZR-75-1 cells to ED50 for chloroquine-resistant Plasmodium falciparum W2; type: toxicity, cell-based; conditions: read-out: Ratio ED50
[26] = Selectivity index, ratio of ED50 for human KB cells to ED50 for chloroquine-resistant Plasmodium falciparum W2; type: toxicity, cell-based; conditions: read-out: Ratio ED50
[27] = Selectivity index, ratio of ED50 for human LUC1 cells to ED50 for chloroquine-sensitive Plasmodium falciparum D6; type: toxicity, cell-based; conditions: read-out: Ratio ED50
[28] = Selectivity index, ratio of ED50 for human LNCaP cells to ED50 for chloroquine-sensitive Plasmodium falciparum D6; type: toxicity, cell-based; conditions: read-out: Ratio ED50
Plasmodium falciparum [29] = experiment: Antimalarial activity after 24 hrs against chloroquine-sensitive Plasmodium falciparum D6 infected type A+ human erythrocytes by [3H]hypoxanthine uptake; type: functional; conditions: read-out: ED50 (the source's name)
[30] = Selectivity index, ratio of ED50 for human MEL2 cells to ED50 for chloroquine-sensitive Plasmodium falciparum D6; type: toxicity, cell-based; conditions: read-out: Ratio ED50
[31] = Cytotoxicity against human KB cells after 3 days by sulforhodamine B assay; type: cell-based; conditions: read-out: ED50
in vitro [32] = conditions: human, A431 cells
Description: Selectivity index, ratio of ED50 for human A431 cells to ED50 for chloroquine-sensitive Plasmodium falciparum D6

in vitro [33] = conditions: human, A431 cells; remark: listed apart in the source
Description: Selectivity index, ratio of ED50 for human A431 cells to ED50 for chloroquine-resistant Plasmodium falciparum W2

Plasmodium falciparum [34] = experiment: Antimalarial activity after 24 hrs against chloroquine-resistant Plasmodium falciparum W2 infected type A+ human erythrocytes by [3H]hypoxanthine uptake; type: functional; conditions: read-out: ED50 (the source's name)
[35] = Selectivity index, ratio of ED50 for human KB-V1 cells to ED50 for chloroquine-sensitive Plasmodium falciparum D6; type: toxicity, cell-based; conditions: read-out: Ratio ED50

Row | SMILES | CC50 at 72 h [1] [µg/mL] | CC50 at 72 h [2] [µg/mL] | selectivity ratio [3] | CC50 at 72 h [4] [µg/mL] | CC50 at 72 h [5] [µg/mL] | selectivity ratio [6] | CC50 at 48 h [7] [µg/mL] | selectivity ratio (in vitro [8]) | selectivity ratio [9] | selectivity ratio [10] | CC50 at 72 h [11] [µg/mL] | selectivity ratio [12] | selectivity ratio [13] | CC50 at 72 h [14] [µg/mL] | selectivity ratio [15] | selectivity ratio [16] | selectivity ratio [17] | CC50 at 72 h [18] [µg/mL] | selectivity ratio (in vitro [19]) | selectivity ratio [20] | further results
1 | COc1ccc2cc1Oc1ccc(cc1)C[C@H]1c3cc(c(OC)cc3CCN1C)Oc1c(OC)c(OC)cc3c1[C@@H](C2)N(C)CC3 | 10.5 (≈ 16.9 µM) | 11 (≈ 17.7 µM) | 64 | 9.4 (≈ 15.1 µM) | 1.5 (≈ 2.41 µM) | 202 | 5.6 (≈ 8.99 µM) | 103 | 192 | 40 | 5 (≈ 8.03 µM) | 67 | 28 | 19.5 (≈ 31.3 µM) | 30 | 357 | 33 | 5.4 (≈ 8.67 µM) | 34 | 99 | selectivity ratio [21]: 183; selectivity ratio [22]: 172; CC50 at 72 h [23]: 8.4 µg/mL (≈ 13.5 µM); CC50 at 72 h [24]: 10 µg/mL (≈ 16.1 µM); selectivity ratio [25]: 92; selectivity ratio [26]: 121; selectivity ratio [27]: 61; selectivity ratio [28]: 57; EC50 (Plasmodium falciparum [29]): 0.165 µg/mL (≈ 0.265 µM); selectivity ratio [30]: 118; CC50 at 72 h [31]: 6.6 µg/mL (≈ 10.6 µM); selectivity ratio (in vitro [32]): 51; selectivity ratio (in vitro [33]): 154; EC50 (Plasmodium falciparum [34]): 0.0546 µg/mL (≈ 0.0877 µM); selectivity ratio [35]: 9
2 | COc1ccc2cc1Oc1ccc(cc1)C[C@H]1c3cc(c(OC)cc3CCN1C)Oc1c(OC)c(OC)cc3c1[C@@H](C2)NCC3 | 7.6 (≈ 12.5 µM) | 7.5 (≈ 12.3 µM) | 115 | 4.1 (≈ 6.74 µM) | 2.8 (≈ 4.6 µM) | 166 | 4.7 (≈ 7.72 µM) | 104 | 168 | 95 | 1.8 (≈ 2.96 µM) | 114 | 62 | 8.2 (≈ 13.5 µM) | 27 | 181 | 67 | 4.4 (≈ 7.23 µM) | 71 | 97 | selectivity ratio [21]: 216; selectivity ratio [22]: 91; CC50 at 72 h [23]: 4.7 µg/mL (≈ 7.72 µM); CC50 at 72 h [24]: 9.8 µg/mL (≈ 16.1 µM); selectivity ratio [25]: 40; selectivity ratio [26]: 139; selectivity ratio [27]: 148; selectivity ratio [28]: 62; EC50 (Plasmodium falciparum [29]): 0.0661 µg/mL (≈ 0.109 µM); selectivity ratio [30]: 124; CC50 at 72 h [31]: 6.3 µg/mL (≈ 10.3 µM); selectivity ratio (in vitro [32]): 71; selectivity ratio (in vitro [33]): 104; EC50 (Plasmodium falciparum [34]): 0.0453 µg/mL (≈ 0.0744 µM); selectivity ratio [35]: 42
3 | COc1ccc2cc1Oc1ccc(cc1)C[C@H]1c3c(cc(OC)c4c3Oc3cc5c(cc3O4)CCN=C5C2)CCN1C | 5 (≈ 8.92 µM) | 2.1 (≈ 3.75 µM) | 16 | 2 (≈ 3.57 µM) | 6.8 (≈ 12.1 µM) | 8 | 3.1 (≈ 5.53 µM) | 12 | 20 | 9 | 0.7 (≈ 1.25 µM) | 7 | 27 | 9.9 (≈ 17.7 µM) | 2 | 39 | 15 | 4.6 (≈ 8.2 µM) | 10 | 18 | selectivity ratio [21]: 7; selectivity ratio [22]: 8; CC50 at 72 h [23]: 6 µg/mL (≈ 10.7 µM); CC50 at 72 h [24]: 1.7 µg/mL (≈ 3.03 µM); selectivity ratio [25]: 3; selectivity ratio [26]: 11; selectivity ratio [27]: 6; selectivity ratio [28]: 7; EC50 (Plasmodium falciparum [29]): 0.307 µg/mL (≈ 0.547 µM); selectivity ratio [30]: 32; CC50 at 72 h [31]: 2.8 µg/mL (≈ 4.99 µM); selectivity ratio (in vitro [32]): 20; selectivity ratio (in vitro [33]): 23; EC50 (Plasmodium falciparum [34]): 0.256 µg/mL (≈ 0.457 µM); selectivity ratio [35]: 22
4 | COc1ccc2cc1Oc1ccc(cc1)C[C@H]1c3cc(c(OC)cc3CCN1C)Oc1c(O)c(OC)cc3c1[C@@H](C2)N(C)CC3 | 11.1 (≈ 18.2 µM) | 10 (≈ 16.4 µM) | 92 | 5.9 (≈ 9.69 µM) | 3.7 (≈ 6.08 µM) | 44 | 7.4 (≈ 12.2 µM) | 32 | 48 | 54 | 2.5 (≈ 4.11 µM) | 83 | 16 | 14.9 (≈ 24.5 µM) | 21 | 65 | 42 | 5 (≈ 8.21 µM) | 61 | 22 | selectivity ratio [21]: 42; selectivity ratio [22]: 26; CC50 at 72 h [23]: 4.9 µg/mL (≈ 8.05 µM); CC50 at 72 h [24]: 9.7 µg/mL (≈ 15.9 µM); selectivity ratio [25]: 11; selectivity ratio [26]: 28; selectivity ratio [27]: 80; selectivity ratio [28]: 49; EC50 (Plasmodium falciparum [29]): 0.121 µg/mL (≈ 0.198 µM); selectivity ratio [30]: 124; CC50 at 72 h [31]: 6.5 µg/mL (≈ 10.7 µM); selectivity ratio (in vitro [32]): 41; selectivity ratio (in vitro [33]): 21; EC50 (Plasmodium falciparum [34]): 0.23 µg/mL (≈ 0.377 µM); selectivity ratio [35]: 31
5 | COc1ccc2cc1Oc1ccc(cc1)C[C@H]1c3c(cc(OC)c(O)c3Oc3cc4c(cc3OC)CCN[C@@H]4C2)CCN1C | 10.3 (≈ 17.3 µM) | 6.9 (≈ 11.6 µM) | 164 | 5.8 (≈ 9.75 µM) | 2.2 (≈ 3.7 µM) | 31 | 2 (≈ 3.36 µM) | 9 | 46 | 92 | 1.8 (≈ 3.03 µM) | 110 | 10 | 13.4 (≈ 22.5 µM) | 29 | 60 | 73 | 4.6 (≈ 7.73 µM) | 32 | 21 | selectivity ratio [21]: 40; selectivity ratio [22]: 26; CC50 at 72 h [23]: 8.3 µg/mL (≈ 14 µM); CC50 at 72 h [24]: 9 µg/mL (≈ 15.1 µM); selectivity ratio [25]: 8; selectivity ratio [26]: 26; selectivity ratio [27]: 143; selectivity ratio [28]: 92; EC50 (Plasmodium falciparum [29]): 0.063 µg/mL (≈ 0.106 µM); selectivity ratio [30]: 213; CC50 at 72 h [31]: 5.8 µg/mL (≈ 9.75 µM); selectivity ratio (in vitro [32]): 132; selectivity ratio (in vitro [33]): 37; EC50 (Plasmodium falciparum [34]): 0.223 µg/mL (≈ 0.375 µM); selectivity ratio [35]: 35
